In the supplement of paper PMC5412046:
Counter-ions that a name gives are not always drawn.

Columns and labels:
SB.mhdgc-1 = assay: AC50 for growth inhibition (viability) (log10 M); higher = less potent; details: SB.mhdgc-1 (hereditary c.1380delA CDH1 gastric cancer)
In short: (§1)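 Values are log half-maximal activity concentrations from four-parameter fits of DMSO-normalised viability, restricted to high-quality curve classes. Patient-derived gastric cancer cells, hereditary or sporadic, were plated at 500 cells per 1536 well in 5 μL medium and given 23 nL compound in DMSO by pintool across 11 threefold dilutions, the top final concentration being 46 μM. Viability was read by ViewLux luminescence after 48 h and a 30 min CellTiter-Glo step at room temperature.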

SB.msgc-1 = assay: as above; details: SB.msgc-1 (sporadic gastric cancer)
In short: as §1

| Compound | AC50 for growth inhibition (log10 M) (SB.mhdgc-1) | AC50 for growth inhibition (log10 M) (SB.msgc-1) |
| --- | --- | --- |
| Cn1c2ccccc2c2c3c(c4c5ccccc5n(CCC#N)c4c21)CNC3=O [G?-6976] | -5.08 | -5.23 |
| COC1=CC=C2[N](CCCN(C)C)C=C(C2=C1)C/3=C(/C(=O)NC3=O)C4=C[NH]C5=C4C=CC=C5 [G?-6983] | -6.78 | -4.58 |
| CC[C@@H](C)[C@H](NC(=O)[C@H](CC1CCCCC1)NC(=O)c1ccno1)C(=O)N1CCC2(CCc3ccccc32)CC1 [GB 83] | -4.88 | -4.98 |
| CC(C)NC[C@@H](C(=O)N1CCN(c2ncnc3c2[C@H](C)C[C@H]3O)CC1)c1ccc(Cl)cc1 [GDC-0068] | -6.48 | -5.13 |
| CCNC(=O)Nc1ccc(-c2nc3c(c(N4CCOC[C@@H]4C)n2)CCN(C2COC2)C3)cc1 [GDC-0349] | -5.28 | -4.83 |
| C[S+](=O)([O-])N1CCN(Cc2cc3nc(-c4cccc5[nH]ncc45)nc(N4CCOCC4)c3s2)CC1 [GDC-0941] | -7.23 | -6.13 |
| CNC(=O)[C@H](CC/1=C/N=C\2/C=C\C\C=C12)NC(=O)[C@H](CC(C)C)CC(=O)NO [GM-6001] | -6.68 | -5.58 |
| N#C/N=C(\NCCCCCCOc1ccc(Cl)cc1)Nc1ccncc1 [GMX-1778] | -8.08 | -6.88 |
| Cc1nc(N)ncc1-c1nc(N2CCOCC2)c2sc(C(C)(C)O)cc2n1 [GNE-490] | -6.38 | -7.43 |
| CC(C)(O)c1cc2nc(-c3cnc(N)nc3)nc(N3CCOCC3)c2s1 [GNE-493] | -6.98 | -6.88 |
| Cc1ccc(NC(=O)Nc2cc(C(F)(F)F)ccc2F)cc1Nc1ccc2c(c1)NC(=O)/C2=C\c1ccc[nH]1 [GNF-5837] | -4.83 | -4.73 |
| O=C/1NC(=O)C(=C1C2=CN=C3C=CC=C[N]23)/C4=C[N]5CCN(CC6=C5C4=CC=C6)C(=O)N7CCOCC7 [GSK3 Inhibitor] | -5.93 | -4.63 |
| CC[C@H](C)[N]1C=C(C)C2=C1C=C(C=C2C(=O)NC\C3=C(C)\C=C(\C)NC3=O)C4=CC=C(N=C4)N5CCNCC5 [GSK126] | -5.03 | -4.98 |
| CC\1=C(C(\N=C(/N1)C2=CC(=NC=C2)Cl)C3=C(F)C=C(Cl)C=C3)/C(=O)NC4=C(F)C=C5[NH]N=CC5=C4 (stereo not given) [GSK-25] | -5.08 | -4.63 |
| O=C1NC(=O)/C(=C/c2ccc3nccc(-c4ccncc4)c3c2)S1 [GSK-615] | -6.33 | -6.03 |
| O=C(O)Cc1cccc(OCCCN(Cc2cccc(C(F)(F)F)c2Cl)CC(c2ccccc2)c2ccccc2)c1 [GSK-3965] | -4.78 | -4.68 |
| CC(C)c1onc(-c2c(Cl)cccc2Cl)c1COc1ccc(/C=C/c2cccc(C(=O)O)c2)c(Cl)c1 [GW-4064X] | -5.33 | -4.73 |
| CCC(=O)NC[C@H](Cc1ccc(OCCc2nc(-c3ccccc3)oc2C)cc1)N/C(C)=C\C(=O)c1ccc(C(F)(F)F)cc1 [GW-6471] | -5.48 | -4.73 |
| C[C@]\12CC[C@H](O)CC1=C/CC3C2CC[C@@]\4(C)C3C\C=C4[N]5C=NC6=C5C=CC=C6 (stereo not given in full) [Galeterone] | -4.68 | -4.68 |
| Cc1cc(Nc2cc(CN3CCOCC3)c3nc(C)c(Cc4ccc(Cl)cc4F)n3n2)[nH]n1 [Gandotinib] | -4.68 | -4.73 |
| CC(C)C1=C(O)C=C(O)C(=C1)C/2=N/NC(=O)N2C3=CC4=C(C=C3)[N](C)C=C4 [Ganetespib] | -7.33 | -6.93 |
| COc1cc2ncnc(Nc3ccc(F)c(Cl)c3)c2cc1OCCCN1CCOCC1 [Gefitinib] | -5.57 | -6.67 |
| COC1=C2C[C@@H](C)C[C@H](OC)[C@H](O)[C@@H](C)/C=C(\C)[C@H](OC(N)=O)[C@@H](OC)/C=C/C=C(\C)C(=O)NC(=CC1=O)C2=O [Geldanamycin] | -6.58 | -6.43 |

| Compound | AC50 for growth inhibition (log10 M) (SB.mhdgc-1) | AC50 for growth inhibition (log10 M) (SB.msgc-1) |
| --- | --- | --- |
| Cl.Nc1ccn([C@@H]2O[C@H](CO)[C@@H](O)C2(F)F)c(=O)n1 [Gemcitabine] | -7.23 | -7.53 |
| Cc1ccc(C)c(OCCCC(C)(C)C(=O)O)c1 [Gemfibrozil] | -4.78 | -5.13 |
| OC[C@H]1OC(OC2=CC3=C(C(=C2)O)C(=O)\C(=C/O3)C4=CC=C(O)C=C4)[C@H](O)[C@@H](O)[C@@H]1O (stereo not given in full) [Genistin] | -5.78 | -6.33 |
| CCN(CC)Cc1ccc2cc(COC(=O)Nc3ccc(C(=O)NO)cc3)ccc2c1 [Givinostat hydrochloride] | -5.38 | -6.03 |
| O=[S+]([O-])(NCCNC/C=C/c1ccc(Br)cc1)c1cccc2cnccc12 [H-89] | -4.88 | -4.73 |
| CCOC(=O)C(C#N)C\1C2=CC(=CC=C2O\C(=C1C(=O)OCC)N)Br (stereo not given) [HA-14-1] | -4.68 | -4.63 |
| CCCCN(CCCC)CCC(O)c1cc2c(Cl)cc(Cl)cc2c2cc(C(F)(F)F)ccc12 (stereo not given) [Halofantrine] | -4.68 | -4.73 |
| CC[S+](=O)([O-])Nc1ccc2c(c1)/C(=C(/Nc1ccc(CN3CCCCC3)cc1)c1ccccc1)C(=O)N2 [Hesperadin] | -5.18 | -5.23 |
| CCC(c1ccc(O)cc1)C(CC)c1ccc(O)cc1 (stereo not given) [Hexestrol] | -5.88 | -5.88 |
| CNC1CCC(N(Cc2cccc(-c3ccncc3)c2)C(=O)c2sc3c(F)ccc(F)c3c2Cl)CC1 (stereo not given) [Hh-Ag1.5] | -4.73 | -4.83 |
| NC(=O)NO [Hydroxyurea] | -6.08 | -6.88 |
| COc1cc(O)c2c(c1)C1OC1C[C@H](O)[C@H](O)C(=O)/C=C\C[C@H](C)OC2=O (stereo not given in full) [Hypothemycin] | -5.03 | -4.83 |
| COc1cc2c(cc1-c1c(C)noc1C)ncc1[nH]c(=O)n([C@H](C)c3ccccn3)c12 [I-BET151] | -4.93 | -5.28 |
| CCNC(=O)C[C@@H]1\N=C(C2=CC=C(Cl)C=C2)/C3=C(C=CC(=C3)OC)[N]4C(=NN=C14)C [I-BET762] | -6.08 | -5.63 |
| O=C1[C@H](Cc2ccc(O)cc2)N2C(=O)CCN(C(=O)NCc3ccccc3)[C@H]2CN1Cc1cccc2ccccc12 [ICG-001] | -4.83 | -4.88 |
| CCCCc1ccc(N[S+](=O)([O-])c2ccc(C)c(C(=O)N3CCN(c4cccc(C)c4C)CC3)c2)cc1 [IDH-001] | -4.83 | -4.68 |
| O=C(c1ccc(Nc2nccc(-c3cc4ccccc4s3)n2)cc1)N1CCC(N2CCCC2)CC1 [IKK16] | -5.08 | -4.88 |
| N#Cc1c(C2CCNCC2)cc(-c2c(O)cccc2OCC2CC2)nc1N [IKK-2 Inhibitor VIII] | -4.88 | -4.73 |
| O=C(Nc1cc(C(F)(F)F)cc(C(F)(F)F)c1)c1cc(Cl)ccc1O [IMD-0354] | -5.78 | -5.73 |
| CC(C)n1nc(-c2ccc3oc(N)nc3c2)c2c(N)ncnc21 [INK-128] | -4.78 | -5.48 |
| Nc1ccc(C(=O)c2cc3c(ccc4ccccc43)[nH]2)cc1 [IPFK2] | -4.73 | -5.33 |
| CCOC(=O)\C1=C(/C)N\C2=C(C1C3=CC=C(C=C3)C4=CC=CC=C4)\C(=O)CC(C)(C)C2 (stereo not given) [ITD-1] | -4.83 | -4.73 |
